ChEMBL document CHEMBL1955755, “Novel imidazo[2,1-b][1,3,4]thiadiazole carrying rhodanine-3-acetic acid as potential antitubercular agents” (2012)
Converted amounts (≈) assume the structure as drawn.

tested on: Mycobacterium tuberculosis; test: Antitubercular activity against Mycobacterium tuberculosis H37Rv ATCC 27294 after 5 days by microplate alamar blue assay; assay type: functional; details: H37Rv ATCC 27294, 120 h

Compound | MIC [µg/mL]
O=C(O)CN1C(=O)/C(=C/c2c(-c3ccc(F)cc3)nc3sc(C(F)(F)F)nn23)SC1=S | 3.12 (≈ 6.39 µM)
O=C1NC(=O)/C(=C/c2c(-c3ccccc3)nc3sc(C(F)(F)F)nn23)S1 | 25 (≈ 63.1 µM)
Cc1ccc(-c2nc3sc(C(F)(F)F)nn3c2/C=C2\SC(=O)NC2=O)cc1 | 25 (≈ 60.9 µM)
O=C1NC(=S)S/C1=C\c1c(-c2ccc(Br)cc2)nc2sc(C(F)(F)F)nn12 | 3.12 (≈ 6.35 µM)
O=C(O)CN1C(=O)/C(=C/c2c(-c3ccc([N+](=O)[O-])cc3)nc3sc(C(F)(F)F)nn23)SC1=S | 25 (≈ 48.5 µM)
O=C1NC(=S)S/C1=C\c1c(-c2ccc(Cl)cc2)nc2sc(C(F)(F)F)nn12 | 50 (≈ 112 µM)
NNC(=O)c1ccncc1 [ISONIAZID] | 1.56 (≈ 11.4 µM)
COc1ccc(-c2nc3sc(C(F)(F)F)nn3c2/C=C2\SC(=O)NC2=O)cc1 | 25 (≈ 58.6 µM)
O=C1NC(=O)/C(=C/c2c(-c3ccc(Cl)cc3)nc3sc(C(F)(F)F)nn23)S1 | 3.12 (≈ 7.24 µM)
COc1ccc(-c2nc3sc(C(F)(F)F)nn3c2/C=C2\SC(=S)NC2=O)cc1 | 25 (≈ 56.5 µM)
O=C(O)CN1C(=O)/C(=C/c2c(-c3ccc(Cl)cc3)nc3sc(C(F)(F)F)nn23)SC1=S | 3.12 (≈ 6.18 µM)
O=C1NC(=O)/C(=C/c2c(-c3ccc(Br)cc3)nc3sc(C(F)(F)F)nn23)S1 | 25 (≈ 52.6 µM)
O=C(O)CN1C(=O)/C(=C/c2c(-c3ccccc3)nc3sc(C(F)(F)F)nn23)SC1=S | 6.25 (≈ 13.3 µM)
O=C1NC(=O)/C(=C/c2c(-c3ccc(F)cc3)nc3sc(C(F)(F)F)nn23)S1 | 25 (≈ 60.3 µM)
O=C1NC(=O)/C(=C/c2c(-c3ccc([N+](=O)[O-])cc3)nc3sc(C(F)(F)F)nn23)S1 | 50 (≈ 113 µM)
O=C1NC(=S)S/C1=C\c1c(-c2ccc(F)cc2)nc2sc(C(F)(F)F)nn12 | 6.25 (≈ 14.5 µM)
COc1ccc(-c2nc3sc(C(F)(F)F)nn3c2/C=C2\SC(=S)N(CC(=O)O)C2=O)cc1 | 1.56 (≈ 3.12 µM)
CO[C@H]1/C=C/O[C@@]2(C)Oc3c(C)c(O)c4c(O)c(c(/C=N/N5CCN(C)CC5)c(O)c4c3C2=O)NC(=O)/C(C)=C\C=C\[C@H](C)[C@H](O)[C@@H](C)[C@@H](O)[C@@H](C)[C@H](OC(C)=O)[C@@H]1C [RIFAMPIN] | 0.78 (≈ 0.948 µM)
O=C(O)CN1C(=O)/C(=C/c2c(-c3ccc(Br)cc3)nc3sc(C(F)(F)F)nn23)SC1=S | 3.12 (≈ 5.68 µM)
O=C1NC(=S)S/C1=C\c1c(-c2ccc([N+](=O)[O-])cc2)nc2sc(C(F)(F)F)nn12 | 50 (≈ 109 µM)
Cc1ccc(-c2nc3sc(C(F)(F)F)nn3c2/C=C2\SC(=S)NC2=O)cc1 | 6.25 (≈ 14.7 µM)
O=C1NC(=S)S/C1=C\c1c(-c2ccccc2)nc2sc(C(F)(F)F)nn12 | 6.25 (≈ 15.2 µM)
Cc1ccc(-c2nc3sc(C(F)(F)F)nn3c2/C=C2\SC(=S)N(CC(=O)O)C2=O)cc1 | 3.12 (≈ 6.44 µM)
